# Measured values reported in patent US20230348475A1, “IMIDAZOPYRIDAZINE AND IMIDAZOPYRAZINE COMPOUNDS AS INHIBITORS OF CDK7” (THE TRANSLATIONAL GENOMICS RESEARCH INSTITUTE, priority 2020, published 2023).
# Counter-ions that a name gives are not always drawn.
# Molecular target: CDK7/CycH/MAT1 (Homo sapiens, UniProt P50613)
# Assay: Kinase Glo (ADP-Glo) biochemical assay, CDK7
# Settings: CDK7/CycH/MAT1 40 ng, ATP 1 μM, 60 minutes at RT, luminescence
# Procedure: Materials: • Assay Buffer: 50 mM HEPES, 3 mM MgCl2, 3 mM MnCl2, 1 mM DTT, 3 μM Na3VO4, pH 7.5 • Substrate RB • CTF Peptide (ProQinase #: 0040-0000-6) • Enzymes • CDK7/CycH/MAT1 (ProQinase #: 0366-0360-4) • ADP-Glo™ Assay (Promega #: V9101) • ATP: 10 mM • ADP-Glo™ Reagent • Kinase Detection Reagent • 384-well white assay plates
# A ten point serial dilution of compound was prepared at 5X concentration in assay buffer with the final assay concentrations starting at 30 μM, 10 μM, 3 μM, 1 μM . . . 0 μM. Enzyme, substrate, and ATP were used at 40 ng, 200 ng (or 400 ng)* and 1 μM, respectively. The assay plate was set up by mixing the components in a total reaction volume of 10 μL per well. The plate was centrifuged gently for 10 seconds and incubated at room temperature (RT) for 60 minutes in the dark. The ADP-Glo Reagent and kinase detection reagent were added and incubated as recommended. The reaction was quantified by measuring luminescence on the Perkin Elmer Envision plate reader.
# CDK7/CycH/MAT1, sequence (P50613 whole entry): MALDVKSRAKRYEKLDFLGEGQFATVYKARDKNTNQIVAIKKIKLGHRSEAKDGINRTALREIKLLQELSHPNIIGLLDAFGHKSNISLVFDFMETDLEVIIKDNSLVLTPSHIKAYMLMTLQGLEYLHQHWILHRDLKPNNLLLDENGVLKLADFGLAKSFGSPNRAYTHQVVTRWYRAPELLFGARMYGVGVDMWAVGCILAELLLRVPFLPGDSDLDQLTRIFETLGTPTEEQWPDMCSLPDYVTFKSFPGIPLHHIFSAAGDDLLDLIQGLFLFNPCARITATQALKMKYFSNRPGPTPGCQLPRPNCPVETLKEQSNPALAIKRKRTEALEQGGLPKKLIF
# CDK7/CycH/MAT1, sequence (P51946 whole entry partner): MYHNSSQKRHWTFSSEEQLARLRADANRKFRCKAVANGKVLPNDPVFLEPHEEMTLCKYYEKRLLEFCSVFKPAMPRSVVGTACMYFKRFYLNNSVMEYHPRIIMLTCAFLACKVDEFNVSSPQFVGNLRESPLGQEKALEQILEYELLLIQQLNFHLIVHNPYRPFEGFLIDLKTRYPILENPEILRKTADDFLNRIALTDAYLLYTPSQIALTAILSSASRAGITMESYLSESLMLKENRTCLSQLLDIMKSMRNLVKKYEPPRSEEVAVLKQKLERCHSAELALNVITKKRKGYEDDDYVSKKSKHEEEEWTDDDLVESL
# CDK7/CycH/MAT1, sequence (P51948 whole entry partner): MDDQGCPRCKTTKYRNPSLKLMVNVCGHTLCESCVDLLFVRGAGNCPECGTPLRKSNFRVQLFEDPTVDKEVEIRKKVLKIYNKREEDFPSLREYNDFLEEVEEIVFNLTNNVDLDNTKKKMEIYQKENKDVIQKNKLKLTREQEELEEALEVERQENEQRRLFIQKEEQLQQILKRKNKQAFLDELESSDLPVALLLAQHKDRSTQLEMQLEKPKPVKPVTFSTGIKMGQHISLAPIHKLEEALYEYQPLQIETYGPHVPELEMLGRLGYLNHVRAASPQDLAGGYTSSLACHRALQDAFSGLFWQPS
row,IC50,SMILES
1,100 to 1000 nM,"CC(C)c1cnc2c(Nc3ccccc3C(F)(F)F)cc(SC3CCCNC3)nn12 (centres unmarked) [Compound 61, 3-isopropyl-6-(piperidin-3-ylthio)-N-(2-(trifluoromethyl)phenyl) imidazo[1,2-b]pyridazin-8-amine hydrochloride]"
2,< 100 nM,"CCOc1ccccc1CNc1cc(SC2CCNCC2)nn2c(C(C)C)cnc12 [Compound 65, N-(2-ethoxybenzyl)-3-isopropyl-6-(piperidin-4-ylthio)imidazo[1,2-b]pyridazin-8-amine hydrochloride]"
3,< 100 nM,"CC(C)Oc1ccccc1CNc1cc(SC2CCNCC2)nn2c(C(C)C)cnc12 [Compound 67, N-(2-isopropoxybenzyl)-3-isopropyl-6-(piperidin-4-ylthio)imidazo[1,2-b]pyridazin-8-amine hydrochloride]"
4,< 100 nM,"CC(C)c1cnc2c(NCc3ccccc3-n3cccn3)nc(SC3CCCNC3)cn12 (stereo not drawn) [Compound 68, N-(2-(1H-pyrazol-1-yl)benzyl)-3-isopropyl-6-(piperidin-3-ylthio)imidazo[1,2-α]pyrazin-8-amine hydrochloride]"
5,100 to 1000 nM,"CC(C)c1cnc2c(NCc3ccccc3OC(F)(F)F)cc(OC3CCNCC3F)nn12 (centres unmarked) [Compound 69, 6-((3-fluoropiperidin-4-yl)oxy)-3-isopropyl-N-(2-(trifluoromethoxy)benzyl)imidazo[1,2-b]pyridazin-8-amine hydrochloride]"
6,> 1000 nM,"CC(C)c1cnc2c(NCc3ccccc3OC(F)(F)F)cc(OC3CCNCC3(F)F)nn12 (centres unmarked) [Compound 71, 6-((3,3-difluoropiperidin-4-yl)oxy)-3-isopropyl-N-(2-(trifluoromethoxy)benzyl)imidazo[1,2-b]pyridazin-8-amine hydrochloride]"
7,< 100 nM,"COc1cc(F)ccc1CNc1cc(SC2CCNCC2)nn2c(C(C)C)cnc12 [Compound 72, N-(4-fluoro-2-methoxybenzyl)-3-isopropyl-6-(piperidin-4-ylthio)imidazo[1,2-b]pyridazin-8-amine hydrochloride]"
8,100 to 1000 nM,"CC(C)c1cnc2c(NCc3ccccc3OC(F)(F)F)cc(SC3CCNCC3F)nn12 (centres unmarked) [Compound 74, 6-((3-fluoropiperidin-4-yl)thio)-3-isopropyl-N-(2-(trifluoromethoxy)benzyl)imidazo[1,2-b]pyridazin-8-amine hydrochloride]"
9,100 to 1000 nM,"COc1ccccc1CNc1cc(SC2CCNCC2(F)F)nn2c(C(C)C)cnc12 (centres unmarked) [Compound 75, 6-((3,3-difluoropiperidin-4-yl)thio)-3-isopropyl-N-(2-methoxybenzyl)imidazo[1,2-b]pyridazin-8-amine hydrochloride]"
10,100 to 1000 nM,"CC(C)c1cnc2c(NCc3ccccc3OC(F)(F)F)cc(SC3CCNCC3(F)F)nn12 (centres unmarked) [Compound 76, 6-((3,3-difluoropiperidin-4-yl)thio)-3-)isopropyl-N-(2-(trifluoromethoxy)benzyl)imidazo[1,2-b]pyridazin-8-amine hydrochloride]"
11,< 100 nM,"FC(F)(F)c1cnc2c(NCc3ccccc3)cc(SC3CCNCC3)nn12 [Compound 78, N-benzyl-6-(piperidin-4-ylthio)-3-(trifluoromethyl)imidazo[1,2-b]pyridazin-8-amine hydrochloride]"
12,100 to 1000 nM,"COc1cc(F)ccc1CNc1cc(SC2CCCNC2)nn2c(C(C)C)cnc12 (centres unmarked) [Compound 79, N-(4-fluoro-2-methoxybenzyl)-3-isopropyl-6-(piperidin-3-ylthio)imidazo[1,2-b]pyridazin-8-amine formate]"
13,100 to 1000 nM,"CC(C)c1cnc2c(NCc3ccc(F)cc3C(F)(F)F)cc(SC3CCNCC3)nn12 [Compound 80, N-(4-fluoro-2-(trifluoromethyl)benzyl)-3-isopropyl-6-(piperidin-4-ylthio)imidazo[1,2-b]pyridazin-8-amine hydrochloride]"
14,100 to 1000 nM,"CC(C)c1cnc2c(NCc3ccc(F)cc3C(F)(F)F)cc(SC3CCCNC3)nn12 (centres unmarked) [Compound 81, N-(4-fluoro-2-(trifluoromethyl)benzyl)-3-isopropyl-6-(piperidin-3-ylthio)imidazo[1,2-b]pyridazin-8-amine hydrochloride]"
